Earlier results as cited in patent US7276253B2, “Stable drug form for oral administration with benzimidazole derivatives as active ingredient and process for the preparation thereof” (AstraZeneca AB, priority 1996, dated 2007).

Conditions: aqueous solution at pH values under 4

- half-life: less than ten
Compound: COc1ccc2[nH]c([S+]([O-])Cc3ncc(C)c(OC)c3C)nc2c1 (stereo not shown) [Omeprazole, 5-methoxy-2(((4-methoxy-3,5-dimethyl-2-pyridyl)methyl)-sulfinyl)-1H-benzimidazole]
